Drawing on PubChem BioAssay (NCI), this text covers TGI and GI50 for 15 molecules.

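How tested: cells in 96-well plates exposed to compound for 48 hours at five concentrations. GI50: concentration for 50% inhibition of growth. Definition used: TGI = concentration required for complete inhibition of growth.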

Among the test systems are SNB-19 CNS; CCRF-CEM leukemia; OVCAR-8 ovarian; SF-268 CNS; SK-MEL-28 melanoma; KM12 colon; OVCAR-5 ovarian; SNB-75 CNS.
What all share (test): NCI-60 cell line screen, 48 h

As to `Cc1cccc(C)c1NC(=O)C(=O)C1C(=O)NC(=O)NC1=O`, the TGI with SNB-19 CNS, in the assay with CCRF-CEM leukemia, in the assay on OVCAR-8 ovarian, in the assay on SF-268 CNS, in the assay with SK-MEL-28 melanoma and in the assay on KM12 colon was more than 100 µM each time. Further, the TGI with OVCAR-5 ovarian was more than 100 µM.

Regarding `O=C1O[C@@H](c2ccc3c(c2)OCO3)C2C(=O)O[C@@H](c3ccc4c(c3)OCO4)C12` (some centres undefined), the TGI in the assay on SNB-19 CNS, with CCRF-CEM leukemia, with OVCAR-8 ovarian, in the assay on SNB-75 CNS, with SF-268 CNS and with SK-MEL-28 melanoma was more than 100 µM each time. In the assay on KM12 colon, this molecule displayed a TGI of more than 100 µM.

Regarding `OCC(O)CC[CH2][Sn]([Br])([c]1ccccc1)[c]1ccccc1` (centres undefined), the GI50 in the assay on SNB-19 CNS, in the assay with CCRF-CEM leukemia, in the assay with OVCAR-8 ovarian, with SNB-75 CNS, with KM12 colon and in the assay on OVCAR-5 ovarian was more than 100 µM in each case. The TGI in the assay with SNB-19 CNS, in the assay on CCRF-CEM leukemia, in the assay on OVCAR-8 ovarian, in the assay with SNB-75 CNS, in the assay with KM12 colon and with OVCAR-5 ovarian was more than 100 µM each time.

With `COC(=O)c1c/c(=N\NC(=O)CC(=O)Nc2ccccc2OC)c2ccccc2o1`, the TGI with SNB-19 CNS, with SNB-75 CNS, in the assay with SF-268 CNS, in the assay on SK-MEL-28 melanoma, with KM12 colon and with OVCAR-5 ovarian was more than 100 µM each time.

As to `CCCCN=C(NC#N)NCCCC`, the TGI in the assay with SNB-19 CNS, in the assay with OVCAR-8 ovarian, with SNB-75 CNS, with SF-268 CNS, in the assay on SK-MEL-28 melanoma and in the assay with KM12 colon was more than 100 µM in each case. In addition, in the assay with OVCAR-5 ovarian, the TGI is more than 100 µM.

For the molecule `CCOC(=O)[C]1([Bi]([CH3])[CH3])N=NC(C(=O)OC)=C1C(=O)OC` (centres undefined), the GI50 is 26 µM in the assay with SNB-19 CNS; 11.3 µM with CCRF-CEM leukemia; 19.2 µM with OVCAR-8 ovarian; 15.6 µM in the assay on SNB-75 CNS; 17.2 µM with SF-268 CNS; 16.2 µM with SK-MEL-28 melanoma. Moreover, the GI50 in the assay on KM12 colon is 21.5 µM; in the assay with OVCAR-5 ovarian it was more than 10 µM. Besides, the TGI in the assay on SNB-19 CNS came out at 66 µM; in the assay with CCRF-CEM leukemia, 37.6 µM; with OVCAR-8 ovarian, 42.3 µM; in the assay on SNB-75 CNS, 29.9 µM; with SF-268 CNS it was 31.7 µM; in the assay with SK-MEL-28 melanoma it was 30.4 µM. The TGI was 49.2 µM in the assay with KM12 colon and more than 10 µM with OVCAR-5 ovarian.

With `C/C(CC(=O)Nc1cc(Cl)c(Cl)cc1Cl)=N\NC(N)=O`, the TGI in the assay on CCRF-CEM leukemia, with OVCAR-8 ovarian, in the assay on SNB-75 CNS, with SF-268 CNS, in the assay on SK-MEL-28 melanoma and in the assay on KM12 colon was more than 100 µM in each case. In the assay with OVCAR-5 ovarian, the TGI was more than 100 µM.

Take `O=C(/C=C/c1c(O)ccc2ccccc12)c1cccc(O)c1`: the TGI in the assay with SNB-19 CNS, with CCRF-CEM leukemia, in the assay with OVCAR-8 ovarian, in the assay on SNB-75 CNS, in the assay on SF-268 CNS and in the assay on SK-MEL-28 melanoma was more than 100 µM each time. Besides, the TGI in the assay with KM12 colon and in the assay with OVCAR-5 ovarian was more than 100 µM throughout.

Consider `COC(=O)/C=C/c1cc(OC)c(OC)c(OC)c1`, for which the TGI with SNB-19 CNS, in the assay on CCRF-CEM leukemia, with OVCAR-8 ovarian, with SNB-75 CNS, in the assay with SF-268 CNS and with SK-MEL-28 melanoma was more than 100 µM each time. This molecule also came in with a TGI in the assay with KM12 colon of more than 100 µM.

Regarding `CCC[CH2][Sn]([CH2]CCC)([O]C(=O)c1cccnc1SC)[O]C(=O)c1cccnc1SC`, the GI50 in the assay with SNB-19 CNS was 1.46 µM; in the assay on OVCAR-8 ovarian, 1.3 µM; in the assay with SNB-75 CNS, 0.673 µM; with SF-268 CNS it was 0.65 µM; in the assay on SK-MEL-28 melanoma, 0.722 µM; in the assay on KM12 colon, 1.51 µM. Moreover, the GI50 in the assay on OVCAR-5 ovarian was 1.76 µM. The TGI in the assay with SNB-19 CNS was 2.78 µM; in the assay with OVCAR-8 ovarian it was 2.78 µM; with SNB-75 CNS, 2.02 µM; in the assay on SF-268 CNS, 2.01 µM; in the assay with SK-MEL-28 melanoma, 2.02 µM; in the assay with KM12 colon, 3.08 µM. The same molecule had a TGI with OVCAR-5 ovarian of 3.17 µM.

Turning to `O=C1CCC2(c3ccc(F)cc3)Nc3cc(Cl)ccc3N12` (centres undefined), the TGI with SNB-19 CNS, in the assay with CCRF-CEM leukemia, in the assay on OVCAR-8 ovarian, in the assay with SNB-75 CNS, in the assay with SF-268 CNS and in the assay with SK-MEL-28 melanoma was more than 100 µM each time. This molecule had a TGI in the assay with KM12 colon of more than 100 µM.

For `Cc1cc2c(cc1C)[n+](=O)c(C(=O)C/C(=N/NC(=O)CC#N)C(=O)Nc1ccccc1C(F)(F)F)c(C)n2[O-]`, the TGI with SNB-19 CNS, with CCRF-CEM leukemia, in the assay on OVCAR-8 ovarian, in the assay on SNB-75 CNS, in the assay with SF-268 CNS and in the assay on SK-MEL-28 melanoma was more than 100 µM throughout. Moreover, the TGI in the assay on KM12 colon and in the assay with OVCAR-5 ovarian was more than 100 µM each time.

As for `O=C1/C(=C/c2ccccc2)CNC/C1=C\c1ccccc1`, the TGI with SNB-19 CNS was 11.9 µM; in the assay with CCRF-CEM leukemia, more than 25.5 µM; with OVCAR-8 ovarian, 5.88 µM; with SNB-75 CNS, 11.6 µM; in the assay on SF-268 CNS, 9.34 µM; in the assay with SK-MEL-28 melanoma, 3.9 µM. The TGI in the assay with KM12 colon turned out to be 2.66 µM; with OVCAR-5 ovarian, 6.21 µM.

Take `NC(CCC(=O)NC(CSSCCCCS(=O)O)C(=O)NCC(=O)O)C(=O)O` (centres undefined): the TGI in the assay on SNB-19 CNS, with CCRF-CEM leukemia, in the assay with OVCAR-8 ovarian, in the assay on SNB-75 CNS, with SF-268 CNS and with SK-MEL-28 melanoma was more than 100 µM each time. Also, the TGI in the assay on KM12 colon and in the assay on OVCAR-5 ovarian was more than 100 µM in each case.

Turning to `CSC(C1c2ccccc2N(c2ccc(C)cc2)C2=NC(=O)N(C)C(=O)C21Cl)S(=O)(=O)c1ccc(C)cc1` (centres undefined), the TGI was 85.2 µM in the assay on SNB-19 CNS; 38 µM with CCRF-CEM leukemia; more than 100 µM in the assay with OVCAR-8 ovarian; 60 µM with SNB-75 CNS; 62.5 µM in the assay on SF-268 CNS; 45.1 µM in the assay on SK-MEL-28 melanoma. This molecule had a TGI in the assay with OVCAR-5 ovarian of 83.2 µM.
